pIC50: −log10 of the molar value. Entries after “also recorded” stand apart in the source; their conditions may differ.

The target in series [1] is human full-length MKNK1 (Homo sapiens (Human), UniProt Q9BUB5, T344D). As to the kind of experiment: MKNK1 kinase high ATP assay (TR-FRET). In kind it is biochemical. The note with it: high ATP (2 mM), 15 min preincubation with enzyme; read-out: MKNK1 IC50. In a few lines:
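GST-tagged full-length MKNK1 (aa 1–424, T344D; insect-cell expressed) preincubated 15 min with compound, then reacted 30 min at 22 °C with 2 mM ATP and 0.06 μM biotinylated peptide (final) in HEPES pH 7.5 buffer. Phosphopeptide detected by TR-FRET 665/620 ratio, normalized to no-inhibitor and no-enzyme controls.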

Series [2] deals with secretion of TNF-α in human PBMCs. The experiment in a line: In vitro IL-1β-induced cytokine (TNF-α) secretion of human PBMCs. It is filed as cell-based. Particulars: for pIC50: PBMC, human PBMCs stimulated with 20 ng/ml IL-1β for 24 hours. An excerpt:
In Vitro IL-1β (Interleukin-1 beta, IL-1b)-Induced Cytokine Secretion of Human PBMCs (Peripheral Blood Mononuclear Cells)
The effect of the chemical compounds on the induced cytokine secretion of human PBMCs has been investigated. Here, the cytokine secretion has been induced by IL-1β which binding to its receptors leads to the activation of the MKNK signaling pathway.
(§1) Human PBMCs have been isolated from anti-coagulated human whole blood donated from healthy volunteers by pre-filling Leucosep tubes with ficoll-paque (15 ml, Biochrom, order ID: L6115) and adding 20 ml whole blood. After centrifugation of the blood at 800 g for 15 min at room temperature (RT) plasma including thrombocytes has been discarded. PBMCs were transferred to a new falcon tube, washed with PBS (phosphate-buffered saline) at 250 g for 10 min at RT and resuspended in complete medium [RPMI 1640, without L-glutamine (PAA, order ID: E15-039), 10% FCS; 50 U/ml Penicillin, 50 μg/ml Streptomycin (PAA, order ID: P11-010) and 1% L-glutamine (Sigma, order ID. G7513)]. The assay was performed in a 96-well plate at a cell density of 2.5×10^5 cells/well as triplicates. The compounds were serially diluted in DMSO and added to the PBMCs at a range of 3×10^−9 M to 1×10^−5M with a final concentration of 0.4% DMSO, respectively. Treatment of PBMCs with 0.4% DMSO was used as control. After 30 min of incubation, PBMCs were stimulated with 20 ng/ml IL-1β (R&D, order ID: 201-LB CF) for 24 hours. Cell viability was measured using the CellTiter-Glo Luminescent Assay (Promega, order ID: G7571) following the manufacturers protocol. The amount of secreted TNF-α (tumor necrosis factor-alpha) in the supernatant was determined using the Human Prolnflammatory 9-Plex (MSD, order ID: K15007B) according to manufacturer's instruction. The inhibitory activity was determined as the relation to the control in percent. IC50 values were calculated using the 4-parameter logistic model.

Series [3] has as its system human peripheral blood mononuclear cells. As to the kind of experiment: Cell viability of human PBMCs (CellTiter-Glo Luminescent Assay). It is filed as cell-based. The note with it: IL-1β stimulated, 24 hours. The method, then: as §1, with “The compounds were serially diluted in DMSO and added to the PBMCs at a range of 3×10^−9 M to 1×10^−5M with a final concentration of 0.4% DMSO, respectively. Treatment of PBMCs with 0.4% DMSO was used as control. After 30 min of incubation, PBMCs were stimulated with 20 ng/ml IL-1β (R&D, order ID: 201-LB CF) for 24 hours.” left out

human full-length MKNK1, sequence (Q9BUB5 other isoform, or with tags, fused parts or gaps T344D): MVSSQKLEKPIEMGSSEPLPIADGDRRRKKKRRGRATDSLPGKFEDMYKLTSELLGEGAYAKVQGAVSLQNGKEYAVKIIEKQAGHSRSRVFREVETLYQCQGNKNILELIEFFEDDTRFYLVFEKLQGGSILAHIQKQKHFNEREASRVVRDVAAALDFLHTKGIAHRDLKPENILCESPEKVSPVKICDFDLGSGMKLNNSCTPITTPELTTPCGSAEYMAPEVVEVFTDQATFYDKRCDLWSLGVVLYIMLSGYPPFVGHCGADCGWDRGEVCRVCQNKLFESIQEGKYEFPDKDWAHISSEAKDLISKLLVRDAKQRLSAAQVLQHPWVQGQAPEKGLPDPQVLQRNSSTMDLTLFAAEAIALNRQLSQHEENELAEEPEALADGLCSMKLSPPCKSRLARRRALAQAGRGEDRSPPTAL

For the compound `CN(C)[C@H]1CCN(C(=O)[C@H]2CCc3c(sc4ncnc(Nc5ccn6nccc6c5)c34)C2)C1` [Example 41, [(3S)-3-(Dimethylamino)pyrrolidin-1-yl][(7S)-4-(pyrazolo[1,5-a]pyridin-5-ylamino)-5,6,7,8-tetrahydro[1]benzothieno[2,3-d]pyrimidin-7-yl]methanone], the negative logarithm of the IC50 (pIC50) in series [1] was 7.96; in series [2] it was 7.00 to 8.00. Moreover, the “inhibition of the secretion of TNF-α” value in series [2] (human PBMCs stimulated with IL-1β) was “inhibition of the secretion of TNF-α; also recorded: inhibits the secretion of TNF-α in a dose dependent manner”. Also, the “effect on cell viability” value in series [3] is listed as “no effect”.
In the case of `CN1CCN(C(=O)[C@H]2CCc3c(sc4ncnc(Nc5cc6ccnn6cc5Cl)c34)C2)CC1` [Example 65, (7S)-4-[(6-Chloropyrazolo[1,5-a]pyridin-5-yl)amino]-5,6,7,8-tetrahydro[1]benzothieno[2,3-d]pyrimidin-7-yl(4-methylpiperazin-1-yl)methanone], the negative-log IC50 (pIC50) in series [1] is 8.30; in series [2], 7.00 to 8.00.
